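96-well plates; 48 h exposure; 5 concentrations. Endpoints by linear interpolation between flanking doses. Not reached: highest tested concentration assigned. GI50 is the concentration that inhibits growth by half.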 Active and inactive are the calls of the source. No stated cut-off is given here; in the data, active = GI50 up to about 1.1 µM and inactive = higher.
Experiments:
Assay in all cases: growth of human tumour cells (NCI), 48 h
HOP-92 = test system: HOP-92
HCC 2998 = test system: HCC 2998
RPMI-8226 = test system: RPMI-8226
SNB-19 = test system: SNB-19
HCT-116 = test system: HCT-116
UACC-257 = test system: UACC-257
UACC-62 = test system: UACC-62
EKVX = test system: EKVX
TK-10 = test system: TK-10
MDA-N = test system: MDA-N
NCI-H23 = test system: NCI-H23
SK-OV-3 = test system: SK-OV-3
A549 = test system: A549
COLO 205 = test system: COLO 205
MDA-MB-231 = test system: MDA-MB-231
MDA-MB-435 = test system: MDA-MB-435
HCT-15 = test system: HCT-15
SF-295 = test system: SF-295
OVCAR-4 = test system: OVCAR-4
PC-3 = test system: PC-3

## CCN(CC)CCNc1ccc2nnn3c4ccc(OCCN(CC)CC)cc4c(=O)c1c23
HOP-92
  GI50: 51.9 µM (inactive)
HCC 2998
  GI50: > 100 µM (inactive)
RPMI-8226
  GI50: 26.8 µM (inactive)
SNB-19
  GI50: 48.5 µM (inactive)
HCT-116
  GI50: 30 µM (inactive)
UACC-257
  GI50: > 100 µM (inactive)
UACC-62
  GI50: > 100 µM (inactive)
EKVX
  GI50: 71 µM (inactive)
TK-10
  GI50: 28.5 µM (inactive)
MDA-N
  GI50: 66.5 µM (inactive)
NCI-H23
  GI50: 88.5 µM (inactive)
SK-OV-3
  GI50: > 100 µM (inactive)
A549
  GI50: 44.9 µM (inactive)
COLO 205
  GI50: 30.6 µM (inactive)
MDA-MB-231
  GI50: 23.1 µM (inactive)
MDA-MB-435
  GI50: 49.5 µM (inactive)
HCT-15
  GI50: 64.6 µM
SF-295
  GI50: 65.3 µM (inactive)
OVCAR-4
  GI50: 16.3 µM (inactive)

## O=C1/C(=C/c2ccc(Cl)cc2)CCC/C1=C\c1ccc(O)c(CN2CCCCC2)c1
HOP-92
  GI50: 18.5 µM (inactive)
HCC 2998
  GI50: 20.2 µM (inactive)
PC-3
  GI50: 8.91 µM (inactive)
SNB-19
  GI50: 33 µM (inactive)
HCT-116
  GI50: 8.57 µM (inactive)
UACC-257
  GI50: 17.8 µM (inactive)
UACC-62
  GI50: 16.1 µM (inactive)
EKVX
  GI50: 18.1 µM (inactive)
TK-10
  GI50: 29.2 µM (inactive)
MDA-N
  GI50: 12.9 µM (inactive)
NCI-H23
  GI50: 19.1 µM (inactive)
SK-OV-3
  GI50: 24 µM (inactive)
A549
  GI50: 27.2 µM (inactive)
COLO 205
  GI50: 20.3 µM (inactive)
MDA-MB-231
  GI50: 26.9 µM (inactive)
MDA-MB-435
  GI50: 17 µM (inactive)
HCT-15
  GI50: 12.2 µM
SF-295
  GI50: 14.2 µM (inactive)
OVCAR-4
  GI50: 20 µM (inactive)

## C=C1CN=C(Nc2ccc(Cl)cc2)S1
HOP-92
  GI50: 28.2 µM (inactive)
HCC 2998
  GI50: > 100 µM (inactive)
RPMI-8226
  GI50: 83.8 µM (inactive)
PC-3
  GI50: > 100 µM (inactive)
SNB-19
  GI50: > 100 µM (inactive)
HCT-116
  GI50: > 100 µM (inactive)
UACC-257
  GI50: > 100 µM (inactive)
EKVX
  GI50: > 100 µM (inactive)
TK-10
  GI50: > 100 µM (inactive)
MDA-N
  GI50: > 100 µM (inactive)
NCI-H23
  GI50: > 100 µM (inactive)
SK-OV-3
  GI50: > 100 µM (inactive)
A549
  GI50: > 100 µM (inactive)
COLO 205
  GI50: > 100 µM (inactive)
MDA-MB-231
  GI50: > 100 µM (inactive)
HCT-15
  GI50: > 100 µM
SF-295
  GI50: > 100 µM (inactive)
OVCAR-4
  GI50: > 100 µM (inactive)

## C[Si](C)(C)C#CCOC=C1CC1
HCC 2998
  GI50: > 100 µM (inactive)
PC-3
  GI50: > 100 µM (inactive)
SNB-19
  GI50: > 100 µM (inactive)
HCT-116
  GI50: > 100 µM (inactive)
UACC-257
  GI50: > 100 µM (inactive)
UACC-62
  GI50: > 100 µM (inactive)
EKVX
  GI50: > 100 µM (inactive)
TK-10
  GI50: > 100 µM (inactive)
MDA-N
  GI50: > 100 µM (inactive)
NCI-H23
  GI50: > 100 µM (inactive)
SK-OV-3
  GI50: > 100 µM (inactive)
A549
  GI50: > 100 µM (inactive)
COLO 205
  GI50: > 100 µM (inactive)
MDA-MB-231
  GI50: > 100 µM (inactive)
HCT-15
  GI50: > 100 µM
SF-295
  GI50: > 100 µM (inactive)
OVCAR-4
  GI50: > 100 µM (inactive)

## CC(C)(C)c1cc(C(CO)OCCOCCO)cc(C(C)(C)C)c1O (configuration not stated)
HOP-92
  GI50: > 100 µM (inactive)
RPMI-8226
  GI50: > 100 µM (inactive)
PC-3
  GI50: > 100 µM (inactive)
SNB-19
  GI50: > 100 µM (inactive)
HCT-116
  GI50: > 100 µM (inactive)
UACC-257
  GI50: > 100 µM (inactive)
UACC-62
  GI50: > 100 µM (inactive)
EKVX
  GI50: > 100 µM (inactive)
TK-10
  GI50: > 100 µM (inactive)
MDA-N
  GI50: > 100 µM (inactive)
NCI-H23
  GI50: > 100 µM (inactive)
SK-OV-3
  GI50: > 100 µM (inactive)
A549
  GI50: > 100 µM (inactive)
COLO 205
  GI50: > 100 µM (inactive)
MDA-MB-231
  GI50: > 100 µM (inactive)
MDA-MB-435
  GI50: > 100 µM (inactive)
HCT-15
  GI50: > 100 µM
SF-295
  GI50: > 100 µM (inactive)
OVCAR-4
  GI50: > 100 µM (inactive)

## NC(=O)c1c(NC=O)ncn1C1OCC(O)C(O)C1O (configuration not stated)
HOP-92
  GI50: > 100 µM (inactive)
RPMI-8226
  GI50: > 100 µM (inactive)
PC-3
  GI50: > 100 µM (inactive)
SNB-19
  GI50: > 100 µM (inactive)
HCT-116
  GI50: > 100 µM (inactive)
UACC-257
  GI50: > 100 µM (inactive)
UACC-62
  GI50: > 100 µM (inactive)
EKVX
  GI50: > 100 µM (inactive)
TK-10
  GI50: > 100 µM (inactive)
MDA-N
  GI50: > 100 µM (inactive)
NCI-H23
  GI50: > 100 µM (inactive)
SK-OV-3
  GI50: > 100 µM (inactive)
A549
  GI50: > 100 µM (inactive)
COLO 205
  GI50: > 100 µM (inactive)
MDA-MB-231
  GI50: > 100 µM (inactive)
MDA-MB-435
  GI50: > 100 µM (inactive)
HCT-15
  GI50: > 100 µM
SF-295
  GI50: > 100 µM (inactive)
OVCAR-4
  GI50: > 100 µM (inactive)

## OC[C@H]1CCCC1O (some centres not stated)
HOP-92
  GI50: > 100 µM (inactive)
HCC 2998
  GI50: > 100 µM (inactive)
RPMI-8226
  GI50: > 100 µM (inactive)
PC-3
  GI50: > 100 µM (inactive)
SNB-19
  GI50: > 100 µM (inactive)
HCT-116
  GI50: > 100 µM (inactive)
UACC-257
  GI50: > 100 µM (inactive)
UACC-62
  GI50: > 100 µM (inactive)
TK-10
  GI50: > 100 µM (inactive)
MDA-N
  GI50: > 100 µM (inactive)
NCI-H23
  GI50: > 100 µM (inactive)
A549
  GI50: > 100 µM (inactive)
COLO 205
  GI50: > 100 µM (inactive)
MDA-MB-231
  GI50: > 100 µM (inactive)
MDA-MB-435
  GI50: > 100 µM (inactive)
HCT-15
  GI50: > 100 µM
SF-295
  GI50: > 100 µM (inactive)
OVCAR-4
  GI50: > 100 µM (inactive)

## COc1cccc(NC(=O)CC(=O)N2N=C(C)C(/N=N/c3ccc(C(=O)O)cc3)C2=O)c1 (configuration not stated)
HCC 2998
  GI50: > 100 µM (inactive)
RPMI-8226
  GI50: > 100 µM (inactive)
PC-3
  GI50: > 100 µM (inactive)
SNB-19
  GI50: > 100 µM (inactive)
HCT-116
  GI50: > 100 µM (inactive)
UACC-257
  GI50: > 100 µM (inactive)
UACC-62
  GI50: > 100 µM (inactive)
EKVX
  GI50: 25.4 µM (inactive)
TK-10
  GI50: > 100 µM (inactive)
MDA-N
  GI50: > 100 µM (inactive)
NCI-H23
  GI50: > 100 µM (inactive)
A549
  GI50: > 100 µM (inactive)
COLO 205
  GI50: > 100 µM (inactive)
MDA-MB-231
  GI50: > 100 µM (inactive)
MDA-MB-435
  GI50: > 100 µM (inactive)
HCT-15
  GI50: > 100 µM
SF-295
  GI50: > 100 µM (inactive)
OVCAR-4
  GI50: > 100 µM (inactive)

Reference: ChEMBL document CHEMBL1201862, “PubChem BioAssay data set” (2004)
